Article PMC8286840, “Identifying SARS-CoV-2 antiviral compounds by screening for small molecule inhibitors of Nsp3 papain-like protease” (Biochemical Journal, 2021)
Where a name gives a salt, the structure may show the parent alone. Read-outs that look alike come from different tables or passages of the source.

Assays:
[1] = target: T1, SARS-CoV-2 PLpro (nsp3 1564–1878) (Severe acute respiratory syndrome coronavirus 2, UniProt P0DTD1); assay: biochemical; set-up: FRET-quenched peptide (Pro3) cleavage by PLpro, 10 min pre-incubation, slope over 20 min, normalised to no-compound control; settings: low concentration screen, read-out: % of control remaining
[2] = target: T1, SARS-CoV-2 PLpro (nsp3 1564–1878); assay: biochemical; set-up: FRET-quenched peptide (Pro3) cleavage by PLpro, 10 min pre-incubation, slope over 20 min, normalised to no-compound control; settings: high concentration screen, read-out: % of control remaining

CC[C@H](NC(=O)[C@H](C)NC)C(=O)N1C[C@@H](O)C[C@H]1Cc1c(-c2[nH]c3cc(F)ccc3c2C[C@@H]2C[C@H](O)CN2C(=O)[C@H](CC)NC(=O)[C@H](C)NC)[nH]c2cc(F)ccc12 [Birinapant]
remaining activity at 1.25 µM ([1]; Well no.=6542): 95% | remaining activity at 3.75 µM ([2]; Well no.=6542): 75.1%

CN(C)CC/C=C1/c2ccccc2Sc2ccc(Cl)cc21 [Chlorprothixene]
remaining activity at 1.25 µM ([1]; Well no.=5345): 97.4% | remaining activity at 1.25 µM ([1]; Well no.=6221): 104% | remaining activity at 3.75 µM ([2]; Well no.=5345): 93.5% | remaining activity at 3.75 µM ([2]; Well no.=6221): 99.3%

Cc1nc2cc(F)c(F)cc2n1-c1cncc(Nc2ccc(C(F)(F)F)cc2)n1 [PTC-028]
remaining activity at 1.25 µM ([1]; Well no.=7024): 106% | remaining activity at 3.75 µM ([2]; Well no.=7024): 96.8%

C[C@@H]1O[C@@H]1P(=O)(O)O [Phosphomycin disodium]
remaining activity at 1.25 µM ([1]; Well no.=1148): 96.5% | remaining activity at 3.75 µM ([2]; Well no.=1148): 93.1%

CCC(=O)NCC[C@@H]1CCc2ccc3c(c21)CCO3 [Ramelteon]
remaining activity at 1.25 µM ([1]; Well no.=8525): 104% | remaining activity at 3.75 µM ([2]; Well no.=8525): 106%

CCCCC[C@H](O)/C=C/C=C\C/C=C\C/C=C\CCCC(=O)O [15(S)-HETE]
remaining activity at 1.25 µM ([1]; Well no.=4289): 102% | remaining activity at 3.75 µM ([2]; Well no.=4289): 97.2%

CN(C)CC/C=C1/c2ccccc2COc2ccc(CC(=O)O)cc21 [Olopatadine (hydrochloride)]
remaining activity at 1.25 µM ([1]; Well no.=8201): 104% | remaining activity at 3.75 µM ([2]; Well no.=8201): 102%

NCCC1CCCC(CCN)N1 (centres unmarked) [MDL 26,630 trihydrochloride]
remaining activity at 1.25 µM ([1]; Well no.=945): 103% | remaining activity at 3.75 µM ([2]; Well no.=945): 104%

Nc1ncnc2c1ncn2[C@@H]1O[C@H](C(=O)NC2CC2)[C@@H](O)[C@H]1O [5'-(N-Cyclopropyl)carboxamidoadenosine]
remaining activity at 1.25 µM ([1]; Well no.=86): 99.1% | remaining activity at 3.75 µM ([2]; Well no.=86): 101%

O=C(NCCCCCCNC(=O)ON=C1CCCCC1)ON=C1CCCCC1 [RHC 80267]
remaining activity at 1.25 µM ([1]; Well no.=5818): 96.6% | remaining activity at 3.75 µM ([2]; Well no.=5818): 99.1%

CO/N=C(\C(=O)N[C@@H]1C(=O)N2C(C(=O)O)=C(CSc3nc(=O)c(O)nn3C)CS[C@H]12)c1csc(N)n1 [Ceftriaxone sodium]
remaining activity at 1.25 µM ([1]; Well no.=132): 105% | remaining activity at 3.75 µM ([2]; Well no.=132): 105%

Cc1cc(=O)oc2cc(O)ccc12 [4-Methylumbelliferone]
remaining activity at 1.25 µM ([1]; Well no.=3342): 94% | remaining activity at 3.75 µM ([2]; Well no.=3342): 91.9%

O=C(O)[C@@H]1CCCN1 [L-Proline]
remaining activity at 1.25 µM ([1]; Well no.=7737): 105% | remaining activity at 1.25 µM ([1]; Well no.=8324): 101% | remaining activity at 3.75 µM ([2]; Well no.=7737): 108% | remaining activity at 3.75 µM ([2]; Well no.=8324): 97.3%

COc1cc2nc(N3CCN(C(=O)C4=CC5C=CC4CC5)CC3)nc(N)c2cc1OC (centres unmarked) [Prazobind]
remaining activity at 1.25 µM ([1]; Well no.=1311): 104% | remaining activity at 3.75 µM ([2]; Well no.=1311): 105%

Cc1nc(C#Cc2cccnc2)cs1 [MTEP (hydrochloride)]
remaining activity at 1.25 µM ([1]; Well no.=7283): 92.5% | remaining activity at 3.75 µM ([2]; Well no.=7283): 94.9%

Cn1cc(C2=C(c3ccc(Cl)cc3Cl)C(=O)NC2=O)c2ccccc21 [SB 216763 - 3-(2,4-Dichlorophenyl)-4-(1-methyl-1H-indol-3-yl)-1H-pyrrole-2,5-dione]
remaining activity at 1.25 µM ([1]; Well no.=2442): 96.9% | remaining activity at 3.75 µM ([2]; Well no.=2442): 100%

CN(C)CCC=C1c2ccccc2CCc2ccccc21 [Amitriptyline.HCl]
remaining activity at 1.25 µM ([1]; Well no.=2122): 102% | remaining activity at 3.75 µM ([2]; Well no.=2122): 104%

COc1ccc2c(c[n+](C)c3c4cc5c(cc4ccc23)OCO5)c1OC [Chelerythrine chloride]
remaining activity at 1.25 µM ([1]; Well no.=28): 92.2% | remaining activity at 1.25 µM ([1]; Well no.=2359): 103% | remaining activity at 3.75 µM ([2]; Well no.=28): 92.4% | remaining activity at 3.75 µM ([2]; Well no.=2359): 105%

O=C1OC(/C=C/c2ccccc2)=NC/1=C/c1cccnc1 [TC-DAPK 6]
remaining activity at 1.25 µM ([1]; Well no.=6734): 96.1% | remaining activity at 3.75 µM ([2]; Well no.=6734): 90.3%

C#C[C@]1(O)CC[C@H]2[C@@H]3CCC4=CC(=O)CC[C@@H]4[C@H]3CC[C@@]21C [Norethindrone]
remaining activity at 1.25 µM ([1]; Well no.=2013): 96.6% | remaining activity at 3.75 µM ([2]; Well no.=2013): 96.6%

CC(C)(OO)c1ccccc1 [Cumene hydroperoxide]
remaining activity at 1.25 µM ([1]; Well no.=3843): 103% | remaining activity at 3.75 µM ([2]; Well no.=3843): 100%

COc1ccc2c3c1O[C@H]1C(=O)CC[C@@]4(O)C(C2)N(CC2CC2)CCC314 (single isomer, unassigned; (-)) [(-)-3-Methoxynaltrexone hydrochloride]
remaining activity at 1.25 µM ([1]; Well no.=947): 98.1% | remaining activity at 3.75 µM ([2]; Well no.=947): 97%
